The results in this text go back to publication PMC7397056, “Design, Facile Synthesis and Characterization of Dichloro Substituted Chalcones and Dihydropyrazole Derivatives for Their Antifungal, Antitubercular and Antiproliferative Activities” (Molecules, 2020).

In data set [1] the test system is Mycobacterium tuberculosis H37Rv. Description: Antitubercular activity, broth dilution assay (MIC). Format: cell-based. The note with it: for MIC: Middlebrook 7H9 broth, 37 °C, 21 days.
The test system of data set [2] is prostate cancer cell lines (DU-145). Description: Antiproliferative activity, MTT assay. Type of data set: cell-based. The note with it: Homo sapiens, 48 h, mean ± SD (n = 3). As to the method: (§1) The antiproliferative activity of the compounds was determined their IC50 values. Methotrexate (Mtx; positive control) was used as a reference standard for comparing the antiproliferative activity of the target compounds. The MTT (3-(4,5-dimethylthiazol-2-yl)-2,5-diphenyl tetrazolium bromide) assay was based on the reduction of the soluble MTT (0.5 mg mL^−1, 100 µL) into a blue-purple formazan product, mainly by the activity of mitochondrial reductase enzymes inside the living cells. The prostate cancer cell lines, DU-145 cells, were cultured in Dulbecco’s Modified Eagle Medium (DMEM) media at 37 °C and humidified at 5% CO2. Stock solutions of the test compounds (17–46) were prepared in 0.1% DMSO followed by dilution with sterile water to obtain the desired final concentrations. Briefly, the cells were placed on 96-well plates at 100 µL total volume with the density of 1 × 10^4 cells per well and were allowed to adhere for 24 h. Then the medium was replaced with fresh media containing different dilutions of the test compounds and incubated for additional 48 h at 37 °C in DMEM with 10% fetal bovine serum (FBS) medium. Subsequently, the medium was replaced with 90 μL of fresh DMEM without FBS. The above wells were treated with 10 μL of MTT reagent (5 mg/mL of stock solution in DMEM without FBS) and incubated at 37 °C for 3–4 h. The formed blue formazan crystals were dissolved in 200 μL of DMSO. The optical density was determined at 570 nm using a micro plate reader. The assay was performed in triplicate for three independent experiments. The same experimentation was also done to confirm that the DMSO (negative control) had no effect in the study. The results had good reproducibility between replicate wells with standard errors below 10%. The antiproliferative activity results measured as IC50 values in µg/mL were converted and expressed in µM. Additionally, the cytotoxic activity of the compounds was also measured employing the same protocol discussed above to assess their toxicity on normal human cell lines (L02).
(Tetrazolium assays rely on reduction of a dye to a coloured formazan, in cell work by metabolically active cells.)

Data set [3] is described as follows: Cytotoxic activity on normal cells, MTT assay. Type of data set: cell-based. As to the method: as §1
Data set [4] deals with Aspergillus niger (ATCC-6275). Description: Antifungal activity, serial tube dilution method (MIC). The conditions noted are these: for MIC: Aspergillus niger.
In data set [5] the test system is Candida tropicalis (ATCC-1369). Described as above. The conditions noted are these: for MIC: Candida tropicalis, ATCC1369, 18 h, read-out: Antifungal activity MIC, C. tropicalis, serial tube dilution, 37 °C, 18 h, average of three.
Data set [6] relates to normal human cell lines (L02). Description: Cytotoxic activity on normal cells, MTT assay. Type of data set: cell-based. The conditions noted are these: normal human cell line L02. The procedure: as §1
The mark [7] stands for this setting: Mycobacterium tuberculosis, H37RV, 504 h.
The mark [8] stands for this setting: L02 cells (normal human cell line).
Where [9] appears, read: ATCC6275, 18 h, read-out: Antifungal activity MIC, A. niger, serial tube dilution, 37 °C, 18 h, average of three.

Each structure is given as a SMILES string. In brackets after ≈: the same amount, converted by molar mass. Where two headings read alike, the source gives them in different places.

As for `O=C(/C=C/c1ccccn1)c1ccc(Cl)c(Cl)c1` [Compound 11, (E)-1-(3,4-dichlorophenyl)-3-(pyridin-2-yl)prop-2-en-1-one], the melting point came to 156 °C. In data set [1] (setting [7]), it took 45.1 µM (≈ 12.5 µg/mL) to inhibit growth (MIC). Moreover, the IC50 in data set [2] came out at 353 ± 2 µM. The compound further displayed an IC50 at 48 h in data set [3] (setting [8]) greater than 50 µg/mL. In addition, in data set [4] (setting [9]), the MIC was determined as 28.9 µM. Moreover, the minimum inhibitory concentration (MIC) in data set [5] came out at 28.9 µM (≈ 8.03 µg/mL).
Compound `Clc1ccc(C2=NN(c3ccccc3)C(c3ccc[nH]3)C2)cc1Cl` (centres unmarked) [Compound 30, 3-(3,4-dichlorophenyl)-1-phenyl-5-(1H-pyrrol-2-yl)-4,5-dihydro-1H-pyrazole] displayed a melting point of 171 °C. This compound also had an MIC in data set [1] (setting [7]) of 70.2 µM (≈ 25 µg/mL). In data set [1] (comparator compound 15), the “fold reduction in antitubercular activity compared with chalcone 15” value turned out to be 1.5 fold. For the same compound, the half-inhibitory concentration (IC50) in data set [2] worked out at 84 ± 2 µM. Also, the IC50 at 48 h in data set [3] (setting [8]) was greater than 75 µg/mL. In addition, in data set [4] (setting [9]), the MIC is 44.9 µM. Also, the MIC in data set [5] came to 44.9 µM (≈ 16 µg/mL).
For the compound `Clc1ccc(C2=NN(c3ccccc3)C(c3ccccn3)C2)cc1Cl` (centres unmarked) [Compound 26, 3-(3,4-dichlorophenyl)-1-phenyl-5-(pyridin-2-yl)-4,5-dihydro-1H-pyrazole], the melting point was determined as 191 °C. In addition, the MIC in data set [1] (setting [7]) was found to be 67.9 µM (≈ 25 µg/mL). Besides, the IC50 in data set [2] is 271 ± 2 µM. In data set [3] (setting [8]), the IC50 at 48 h was greater than 75 µg/mL. In addition, the minimal inhibitory concentration (MIC) in data set [4] (setting [9]) is 21.7 µM. In data set [5], the minimum inhibitory concentration (MIC) was determined as 21.7 µM (≈ 8 µg/mL).
For `Clc1ccc(C2=NN(c3ccccc3)C(c3ccncc3)C2)cc1Cl` (centres unmarked) [Compound 28, 3-(3,4-dichlorophenyl)-1-phenyl-5-(pyridin-4-yl)-4,5-dihydro-1H-pyrazole], the melting point turned out to be 214 °C. Inhibition of growth in data set [1] (setting [7]) (MIC) required 67.9 µM (≈ 25 µg/mL). For the same compound, the IC50 in data set [2] was determined as 173 ± 2 µM. This compound also came in with an IC50 at 48 h in data set [3] (setting [8]) greater than 75 µg/mL. The MIC in data set [4] (setting [9]) came to 21.7 µM. Besides, the MIC in data set [5] amounted to 21.7 µM (≈ 8 µg/mL).
In turn, `O=C(/C=C/c1ccc[nH]1)c1ccc(Cl)c(Cl)c1` [Compound 15, (E)-1-(3,4-dichlorophenyl)-3-(1H-pyrrol-2-yl)prop-2-en-1-one] gave a melting point of 238 °C. This compound also showed an MIC in data set [1] (setting [7]) of 47.2 µM (≈ 12.6 µg/mL). This compound also returned an IC50 in data set [2] of 94 ± 2 µM. In data set [3] (setting [8]), this compound yielded an IC50 at 48 h greater than 50 µg/mL. Further, the MIC in data set [4] (setting [9]) stood at 60.4 µM. Further, the minimum inhibitory concentration (MIC) in data set [5] came out at 60.4 µM (≈ 16.1 µg/mL).
As to `Clc1ccc(C2=NN(c3ccccc3)C(c3cccnc3)C2)cc1Cl` (centres unmarked) [Compound 27, 3-(3,4-dichlorophenyl)-1-phenyl-5-(pyridin-3-yl)-4,5-dihydro-1H-pyrazole], the melting point was determined as 184 °C. In addition, the lowest concentration to inhibit growth in data set [1] (setting [7]) (MIC) was 67.9 µM (≈ 25 µg/mL). Moreover, the IC50 in data set [2] worked out at 211 ± 2 µM. In data set [3] (setting [8]), this compound gave an IC50 at 48 h greater than 75 µg/mL. In data set [4] (setting [9]), the MIC was determined as 21.7 µM. Further, in data set [5], the MIC stood at 21.7 µM (≈ 8 µg/mL).
`Clc1ccc(C2=NN(c3ccccc3)C(c3ccc4c(c3)OCO4)C2)cc1Cl` (centres unmarked) [Compound 25, 3-(3,4-dichlorophenyl)-1-phenyl-5-(benzo[d][1,3]dioxol-5-yl)-4,5-dihydro-1H-pyrazole] showed a melting point of 212 °C. The MIC in data set [1] (setting [7]) amounted to 60.8 µM (≈ 25 µg/mL). In data set [2], this compound had an IC50 of 131 ± 2 µM. This compound gave an IC50 at 48 h in data set [3] (setting [8]) greater than 75 µg/mL. Besides, the minimum inhibitory concentration (MIC) in data set [4] (setting [9]) stood at 19.4 µM. For the same compound, the MIC in data set [5] was 19.4 µM (≈ 8 µg/mL).
`O=C(/C=C/c1cccs1)c1ccc(Cl)c(Cl)c1` [Compound 16, (E)-1-(3,4-dichlorophenyl)-3-(thiophen-2-yl)prop-2-en-1-one]: the melting point came to 194 °C. In data set [1] (setting [7]), the MIC is 22.1 µM (≈ 6.25 µg/mL). This compound had a half-maximal inhibitory concentration (IC50) in data set [2] of 17 ± 1 µM. The IC50 at 48 h in data set [3] (normal human cell line L02) is greater than 50 µg/mL. In addition, the “fold better activity in comparison to fluconazole, Aspergillus niger” value in data set [4] is reported as 1.84 fold. The MIC in data set [4] (setting [9]) was 14.1 µM. In addition, in data set [5], the “fold better activity in comparison to fluconazole, Candida tropicalis” value is given as 1.35 fold and the MIC stood at 14.1 µM (≈ 4 µg/mL).
Turning to `O=C(/C=C/c1ccco1)c1ccc(Cl)c(Cl)c1` [Compound 14, (E)-1-(3,4-dichlorophenyl)-3-(furan-2-yl)prop-2-en-1-one], the melting point was 172 °C. Further, the MIC in data set [1] (setting [7]) was found to be 47 µM (≈ 12.6 µg/mL). The compound also came in with an IC50 in data set [2] of 206 ± 2 µM. The IC50 at 48 h in data set [3] (setting [8]) is greater than 50 µg/mL. The MIC in data set [4] (setting [9]) came out at 235 µM. The MIC in data set [5] amounted to 117 µM (≈ 31.4 µg/mL).
`O=C(/C=C/c1cccnc1)c1ccc(Cl)c(Cl)c1` [Compound 12, (E)-1-(3,4-dichlorophenyl)-3-(pyridin-3-yl)prop-2-en-1-one] had a melting point of 191 °C. In data set [1] (setting [7]), this compound gave an MIC of 22.6 µM (≈ 6.27 µg/mL). In data set [2], this compound had a half-inhibitory concentration (IC50) of 256 ± 2 µM. The IC50 at 48 h in data set [3] (setting [8]) is greater than 50 µg/mL. Moreover, the MIC in data set [4] (setting [9]) was 28.9 µM. For the same compound, in data set [5], the MIC came out at 14.4 µM (≈ 4.01 µg/mL).
In the case of `CN(Cc1cnc2nc(N)nc(N)c2n1)c1ccc(C(=O)N[C@@H](CCC(=O)O)C(=O)O)cc1` [Methotrexate, reference compound], in data set [2], inhibition was half-maximal at 11 ± 1 µM (IC50). In data set [3] (setting [8]), the IC50 at 48 h is greater than 75 µg/mL. The “Cytotoxic activity IC50, L02” value in data set [6] is given as greater than 75 µg/mL.
Regarding `Clc1ccc(C2CC(c3ccc(Cl)c(Cl)c3)=NN2c2ccccc2)c(Cl)c1` (centres unmarked) [Compound 23, 3-(3,4-dichlorophenyl)-1-phenyl-5-(2,4-dichlorophenyl)-4,5-dihydro-1H-pyrazole], the melting point stood at 302 °C. Also, it took 7.15 µM (≈ 3.12 µg/mL) to inhibit growth in data set [1] (setting [7]) (MIC). Also, the “fold improvement in antitubercular activity compared to compound 20” value in data set [1] (comparator compound 20) is 4 fold. The “fold improvement in antitubercular activity compared to compound 21” value in data set [1] (comparator compound 21) is given as 2 fold. The IC50 in data set [2] is 206 ± 2 µM. Also, the IC50 at 48 h in data set [3] (setting [8]) is greater than 75 µg/mL. For the same compound, the MIC in data set [4] (setting [9]) was 18.3 µM. Besides, in data set [5], the MIC was determined as 36.7 µM (≈ 16 µg/mL).
`Fc1ccc(C2CC(c3ccc(Cl)c(Cl)c3)=NN2c2ccccc2)c(F)c1` (centres unmarked) [Compound 22, 3-(3,4-dichlorophenyl)-1-phenyl-5-(2,4-difluorophenyl)-4,5-dihydro-1H-pyrazole]: the melting point was determined as 291 °C. The MIC in data set [1] (setting [7]) stood at 3.96 µM (≈ 1.6 µg/mL). This compound returned an IC50 in data set [2] of 262 ± 2 µM. This compound gave an IC50 at 48 h in data set [3] (setting [8]) greater than 75 µg/mL. In data set [4] (setting [9]), the MIC was found to be 19.8 µM. Moreover, the MIC in data set [5] came to 19.8 µM (≈ 8 µg/mL).
Regarding `Fc1ccc(C2CC(c3ccc(Cl)c(Cl)c3)=NN2c2ccccc2)cc1` (centres unmarked) [Compound 18, 3-(3,4-dichlorophenyl)-1-phenyl-5-(4-fluorophenyl)-4,5-dihydro-1H-pyrazole], the melting point is 195 °C. In data set [1], this compound gave an MIC of 32.44 µM (≈ 12.5 µg/mL). The “fold less activity than pyrazinamide” value in data set [1] (ratio of MICs vs pyrazinamide (MIC 25.34 µM)) came to 1.2 fold. The same compound returned an IC50 in data set [2] of 119 ± 2 µM. Besides, in data set [3] (setting [8]), the IC50 at 48 h was greater than 75 µg/mL. Moreover, the MIC in data set [4] (setting [9]) turned out to be 28.8 µM. For the same compound, the MIC in data set [4] (ATCC6275, read-out: Antifungal MIC, Aspergillus niger) turned out to be 20.8 µg/mL. Further, in data set [4] (serial tube dilution, 37 °C, 18 h, average of three), the “Antifungal activity MIC, A. niger” value was 20.76 µM. For the same compound, in data set [5], the minimal inhibitory concentration (MIC) came out at 41.5 µM (≈ 16 µg/mL).

By MIC is commonly meant the smallest concentration in the dilution series that meets the test's criterion for growth inhibition. Usually IC50 stands for the midpoint of a concentration-inhibition curve. Lower therefore signals higher potency. In general, melting point refers to the temperature, or range, at which the solid turns liquid.
